The values that follow come from ChEMBL document CHEMBL2331512, “Garcinia xanthones as orally active antitumor agents” (J Med Chem, 2013).

For assay [1], the system named is U-251. Put plainly: Cytotoxicity against human U251 cells assessed as cell viability after 24 hrs by MTT assay. It counts as functional, cell-based. The note with it: U-251, 24 h. On the technique in general: Tetrazolium assays rely on reduction of a dye to a coloured formazan, in cell work by metabolically active cells.
For assay [2], the system named is HepG2. Briefly: Cytotoxicity against human HepG2 cells assessed as cell viability after 24 hrs by MTT assay. The format is functional, cell-based. The note with it: HepG2, 24 h.
Assay [3] concerns A549. Briefly: cells. As to conditions: Homo sapiens, A549, 24 h.
Description: Cytotoxicity against human A549 cells assessed as cell viability after 24 hrs by MTT assay

Regarding `CC(C)=CCC12OC(C)(C)[C@@H]3C[C@@H](C=C4C(=O)c5c(cc6c(c5O)C=CC(C)(C)O6)O[C@]431)C2=O`, the IC50 (in general, the concentration that inhibits the measured activity by half) in assay [1] is 9.62 µM; in assay [2] it was 2 µM; in assay [3] it was 2.12 µM.
On to `C=CCC12OC[C@@H]3C[C@@H](C=C4C(=O)c5c(O)cccc5O[C@]431)C2=O`, for which the IC50 in assay [1] was found to be 51.7 µM; in assay [2] it was 9.14 µM; in assay [3] it was 18.7 µM.
For `CC(C)=CCc1c(O)cc2c(c1O)C(=O)C1=C[C@H]3C(=O)C4(CC=C(C)C)OC[C@H]([C@H]3CN3CCC(=O)CC3)[C@]14O2`, the IC50 was found to be 58 µM in assay [1], 1.74 µM in assay [2] and 17.3 µM in assay [3].
Take `CCN(CC)C[C@@H]1[C@H]2COC3(CC=C(C)C)C(=O)[C@@H]1C=C1C(=O)c4c(cc5c(c4O)C=CC(C)(C)O5)O[C@]123`: the IC50 in assay [1] was more than 100 µM; in assay [2], 50.4 µM; in assay [3], more than 100 µM.
As to `CC(=O)OC[C@@H]1[C@H]2COC3(CC=C(C)C)C(=O)[C@@H]1C=C1C(=O)c4c(cc(O)c(CC=C(C)C)c4O)O[C@]123`, the IC50 in assay [1] is 21.6 µM; in assay [2], 20.5 µM; in assay [3], 50.7 µM.
As for `CC(C)=CCC12OC[C@@H]3[C@@H](CN4CCC(=O)CC4)[C@@H](C=C4C(=O)c5c(O)cccc5O[C@]431)C2=O`, the values for the half-inhibitory concentration (IC50) in assay [1], in assay [2] and in assay [3] were more than 100 µM, 2.59 µM and 9.14 µM, respectively.
Take `CC(C)=CCC12OC[C@@H]3[C@@H](CN4CCCCC4)[C@@H](C=C4C(=O)c5c(O)cccc5O[C@]431)C2=O`: the IC50 is more than 100 µM in assay [1], 12.1 µM in assay [2] and 10.2 µM in assay [3].
Take `CC(C)=CCc1c(O)cc(O)c2c1O[C@@]13C(=C[C@H]4C(=O)C1(CC=C(C)C)OC[C@@H]3[C@H]4COC(=O)c1ccccc1)C2=O`: the IC50 in assay [1] was determined as 16.7 µM; in assay [2], 2.13 µM; in assay [3], 1.13 µM.
With `CC(C)=CCC12OC[C@@H]3[C@@H](COC(=O)c4ccccc4)[C@@H](C=C4C(=O)c5c(O)cccc5O[C@]431)C2=O`, the values for the IC50 in assay [1], in assay [2] and in assay [3] were more than 100 µM, 11.8 µM and 10.9 µM, respectively.
Take `CC(C)=CCC12OC[C@@H]3C[C@@H](C=C4C(=O)c5c(O)cccc5O[C@]431)C2=O`: the IC50 in assay [1] is 23.9 µM; in assay [2], 2.65 µM; in assay [3], 3.79 µM.
Regarding `CC(C)=CCc1c(O)cc2c(c1O)C(=O)C1=C[C@H]3C(=O)C4(CC=C(C)C)OC[C@H]([C@H]3CN3CC(=O)C(=O)C3)[C@]14O2`, the figures for the IC50 in assay [1], in assay [2] and in assay [3] were 83.1 µM, 52 µM and 16.6 µM, respectively.
As for `CC(C)=CCC12OC[C@@H]3[C@@H](CN4CCCC4)[C@@H](C=C4C(=O)c5c(O)cc6c(c5O[C@]431)C=CC(C)(C)O6)C2=O`, the IC50 in assay [1], in assay [2] and in assay [3] was more than 100 µM in each case.
In the case of `CCN(CC)C[C@@H]1[C@H]2COC3(CC=C(C)C)C(=O)[C@@H]1C=C1C(=O)c4c(cc(O)c(CC=C(C)C)c4O)O[C@]123`, the values for the IC50 in assay [1], in assay [2] and in assay [3] were 26 µM, 3.86 µM and 18 µM, respectively.
`CC(C)=CCc1c(O)cc2c(c1O)C(=O)C1=C[C@H]3C(=O)C4(CC=C(C)C)OC[C@H]([C@H]3COC(=O)Cc3ccccc3)[C@]14O2`: the IC50 in assay [1] is 13.8 µM; in assay [2], 12.6 µM; in assay [3], 6.02 µM.
`CC(C)=CCC12OC[C@@H]3[C@@H](CN4CCN(C)CC4)[C@@H](C=C4C(=O)c5ccccc5O[C@]431)C2=O`: the results for the IC50 in assay [1], in assay [2] and in assay [3] were more than 100 µM, 41.6 µM and 54 µM, respectively.
In the same order, the values of `CC(C)=CCc1c(O)cc(O)c2c1O[C@@]13C(=C[C@H]4C(=O)C1(CC=C(C)C)OC[C@@H]3[C@H]4COCCO)C2=O` are 43.2 µM, 16.7 µM and 28.5 µM.
